{
  "source": "patent US11834401B2",
  "about": "“Treating and preventing diseases by modulating cell mechanics” (THE JOHNS HOPKINS UNIVERSITY, priority 2013, dated 2023)",
  "key": {"[1]": {"target": "T1, myosin IIB (Homo sapiens, UniProt P35580)", "T1 construct": "endogenous in cells; host or cells: HEK293, HPDE", "T1 sequence (P35580 whole entry)": "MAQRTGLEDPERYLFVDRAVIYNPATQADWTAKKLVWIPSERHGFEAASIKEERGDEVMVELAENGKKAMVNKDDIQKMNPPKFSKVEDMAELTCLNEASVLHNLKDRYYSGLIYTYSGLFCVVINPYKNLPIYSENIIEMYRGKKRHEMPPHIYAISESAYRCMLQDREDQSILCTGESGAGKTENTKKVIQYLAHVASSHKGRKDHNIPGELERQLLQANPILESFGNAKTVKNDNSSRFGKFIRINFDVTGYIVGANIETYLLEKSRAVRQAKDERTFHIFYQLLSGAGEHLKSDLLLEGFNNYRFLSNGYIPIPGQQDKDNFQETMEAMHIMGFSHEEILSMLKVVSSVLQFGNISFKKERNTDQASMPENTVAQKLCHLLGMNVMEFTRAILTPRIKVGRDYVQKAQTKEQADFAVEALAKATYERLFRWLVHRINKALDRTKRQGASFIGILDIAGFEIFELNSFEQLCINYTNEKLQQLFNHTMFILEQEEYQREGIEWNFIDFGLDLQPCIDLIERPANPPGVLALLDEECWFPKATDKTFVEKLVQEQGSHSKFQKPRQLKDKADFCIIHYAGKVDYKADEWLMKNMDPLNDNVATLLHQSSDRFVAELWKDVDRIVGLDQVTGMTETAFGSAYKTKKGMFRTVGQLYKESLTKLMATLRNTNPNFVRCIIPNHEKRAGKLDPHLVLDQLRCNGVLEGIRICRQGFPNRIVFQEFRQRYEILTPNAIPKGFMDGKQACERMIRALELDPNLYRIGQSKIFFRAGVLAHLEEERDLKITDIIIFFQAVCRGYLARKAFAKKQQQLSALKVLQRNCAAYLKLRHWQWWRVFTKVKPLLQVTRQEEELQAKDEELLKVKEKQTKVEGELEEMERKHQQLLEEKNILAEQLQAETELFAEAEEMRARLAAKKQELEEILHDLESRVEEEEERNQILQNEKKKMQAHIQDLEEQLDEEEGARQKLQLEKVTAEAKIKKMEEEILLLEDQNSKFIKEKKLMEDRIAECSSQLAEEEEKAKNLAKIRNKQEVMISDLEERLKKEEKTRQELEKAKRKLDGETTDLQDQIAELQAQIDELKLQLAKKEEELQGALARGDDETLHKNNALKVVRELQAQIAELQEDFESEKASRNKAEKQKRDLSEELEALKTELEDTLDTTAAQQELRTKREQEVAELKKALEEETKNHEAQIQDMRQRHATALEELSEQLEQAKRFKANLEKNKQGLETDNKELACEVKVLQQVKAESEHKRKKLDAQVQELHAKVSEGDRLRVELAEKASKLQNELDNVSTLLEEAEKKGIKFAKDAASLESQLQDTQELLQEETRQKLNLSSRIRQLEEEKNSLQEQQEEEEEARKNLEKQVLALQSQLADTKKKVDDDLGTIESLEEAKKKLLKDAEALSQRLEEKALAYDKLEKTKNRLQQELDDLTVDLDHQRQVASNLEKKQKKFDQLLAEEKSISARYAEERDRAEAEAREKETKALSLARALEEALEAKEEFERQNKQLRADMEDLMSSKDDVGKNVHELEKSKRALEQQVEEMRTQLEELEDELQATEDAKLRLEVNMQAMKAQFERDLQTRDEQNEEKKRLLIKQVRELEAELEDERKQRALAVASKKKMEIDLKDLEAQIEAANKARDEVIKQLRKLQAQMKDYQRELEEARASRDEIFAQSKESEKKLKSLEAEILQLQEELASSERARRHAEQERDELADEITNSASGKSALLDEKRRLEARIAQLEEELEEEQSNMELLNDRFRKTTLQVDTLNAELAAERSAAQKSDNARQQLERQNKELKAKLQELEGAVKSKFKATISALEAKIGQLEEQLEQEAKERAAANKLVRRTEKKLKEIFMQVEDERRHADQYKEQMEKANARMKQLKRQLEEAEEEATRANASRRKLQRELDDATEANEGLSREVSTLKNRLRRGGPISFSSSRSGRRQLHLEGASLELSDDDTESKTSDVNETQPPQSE", "assay": "Mammalian cell sedimentation assay", "format": "cell-based", "description": "(§1) Sedimentation protocol was adapted from the protocol above. 3×10^6 cells were pelleted for 5 min at 2000 rpm and washed in 1 ml PBS. The pellet was resuspended in 100 μl lysis buffer (50 mM PIPES, pH 6.8, 46 mM NaCl, 2.5 mM EGTA, 1 mM MgCl2, 1 mM ATP, 0.5% Triton X-100, and protease inhibitors—PI cocktail, PMSF, TLCK, Aprotinin). Samples were vortexed briefly and incubated on ice for 20 min, followed by centrifugation at 15,000 g for 5 min at 4° C.\n(§2) Pellet was resuspended in 100 μl lysis buffer minus Triton X-100, and both pellet and supernatant fractions were heated to 100° C. for 3 min with RNaseA. Samples were incubated at 37° C. for 30 min and then heated to 100° C. in sample buffer for 5 min. Samples were loaded on a 15% SDS-polyacrylamide gel. Western blot analyses of phospho-myosin IIA was performed on whole cell lysates of cells treated as above in lysate buffer with 10 mM NaF."}, "[2]": {"target": "T2, myosin IIC (Homo sapiens, UniProt Q7Z406)", "T2 construct": "endogenous in cells; host or cells: HEK293, ASPC-1, HPDE", "T2 sequence (Q7Z406 whole entry)": "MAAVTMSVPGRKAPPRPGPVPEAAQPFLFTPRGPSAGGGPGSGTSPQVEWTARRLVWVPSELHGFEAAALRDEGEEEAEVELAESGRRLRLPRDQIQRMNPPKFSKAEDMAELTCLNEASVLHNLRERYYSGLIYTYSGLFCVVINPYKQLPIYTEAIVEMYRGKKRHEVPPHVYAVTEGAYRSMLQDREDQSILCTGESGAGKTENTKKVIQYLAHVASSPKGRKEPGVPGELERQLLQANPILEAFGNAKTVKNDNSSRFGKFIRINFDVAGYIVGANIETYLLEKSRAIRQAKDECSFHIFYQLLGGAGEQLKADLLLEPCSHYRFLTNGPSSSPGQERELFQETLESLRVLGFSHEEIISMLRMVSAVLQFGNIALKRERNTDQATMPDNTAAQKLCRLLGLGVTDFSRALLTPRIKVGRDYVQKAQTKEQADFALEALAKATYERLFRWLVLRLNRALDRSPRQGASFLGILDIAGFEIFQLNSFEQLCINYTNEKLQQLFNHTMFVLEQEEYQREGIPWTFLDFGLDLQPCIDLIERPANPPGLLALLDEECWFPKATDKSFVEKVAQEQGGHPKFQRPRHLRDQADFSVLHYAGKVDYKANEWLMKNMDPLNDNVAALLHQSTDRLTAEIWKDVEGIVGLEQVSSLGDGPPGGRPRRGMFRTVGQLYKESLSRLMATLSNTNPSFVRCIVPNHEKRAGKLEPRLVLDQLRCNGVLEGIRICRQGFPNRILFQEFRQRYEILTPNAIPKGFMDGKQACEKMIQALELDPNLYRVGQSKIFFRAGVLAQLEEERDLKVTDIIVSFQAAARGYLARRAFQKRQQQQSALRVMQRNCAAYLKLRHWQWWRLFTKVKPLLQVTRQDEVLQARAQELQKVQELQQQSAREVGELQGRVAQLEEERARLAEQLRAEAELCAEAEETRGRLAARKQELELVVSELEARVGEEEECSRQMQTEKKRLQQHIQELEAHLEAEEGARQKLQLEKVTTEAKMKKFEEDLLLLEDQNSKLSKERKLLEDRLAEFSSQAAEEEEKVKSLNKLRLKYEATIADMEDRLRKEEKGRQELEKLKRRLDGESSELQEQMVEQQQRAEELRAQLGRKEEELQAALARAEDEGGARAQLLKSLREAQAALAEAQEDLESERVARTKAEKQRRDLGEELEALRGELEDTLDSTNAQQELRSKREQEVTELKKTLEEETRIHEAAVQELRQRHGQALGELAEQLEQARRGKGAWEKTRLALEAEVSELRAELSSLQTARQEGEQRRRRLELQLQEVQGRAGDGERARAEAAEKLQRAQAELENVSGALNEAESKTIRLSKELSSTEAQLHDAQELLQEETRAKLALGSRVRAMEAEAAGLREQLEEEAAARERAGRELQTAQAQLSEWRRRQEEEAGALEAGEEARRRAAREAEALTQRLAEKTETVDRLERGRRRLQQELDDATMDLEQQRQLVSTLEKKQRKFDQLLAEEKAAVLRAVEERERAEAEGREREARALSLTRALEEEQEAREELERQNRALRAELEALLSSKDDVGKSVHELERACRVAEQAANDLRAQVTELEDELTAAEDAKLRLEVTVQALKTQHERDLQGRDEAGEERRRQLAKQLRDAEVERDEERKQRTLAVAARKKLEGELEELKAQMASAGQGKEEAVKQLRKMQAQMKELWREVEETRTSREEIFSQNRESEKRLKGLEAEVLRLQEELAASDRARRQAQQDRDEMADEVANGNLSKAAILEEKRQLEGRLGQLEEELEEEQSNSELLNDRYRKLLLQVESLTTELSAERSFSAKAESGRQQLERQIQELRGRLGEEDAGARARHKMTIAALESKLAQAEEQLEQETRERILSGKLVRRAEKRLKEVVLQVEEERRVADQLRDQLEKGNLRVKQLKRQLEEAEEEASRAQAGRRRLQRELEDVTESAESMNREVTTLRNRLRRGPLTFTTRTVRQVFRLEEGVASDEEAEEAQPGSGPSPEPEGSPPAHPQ", "assay": "Mammalian cell sedimentation assay", "format": "cell-based", "description": "as §1, §2"}, "[3]": {"target": "T3, myosin IIA (Homo sapiens, UniProt P35579)", "T3 construct": "endogenous in cells; host or cells: HEK293, HPDE, ASPC-1", "assay": "Mammalian cell sedimentation assay", "format": "cell-based", "conditions": "human-derived cell lines", "description": "as §1, §2"}, "[4]": {"system": "AsPC-1 cells", "assay": "Hemi-splenectomy PDAC liver metastasis model", "format": "in vivo, athymic NCr-nu/nu mice", "conditions": "5 mg/ml, 200 μl IP every other day", "description": "Therefore, the inventors tested 4-HAP in a mouse model for PDAC metastasis. Hemi-splenectomies with 4-HAP pre-treated metastatic AsPC-1 cells were performed on nude mice which were subsequently divided into three groups: control, PBS (200 μl PBS IP injections, every other day), and 4-HAP (5 mg/ml, 200 μl IP injections, every other day). Mice were harvested at 5-weeks post-surgery, when the first mouse expired. Metastasis to the liver was observed and quantified by an in-house Matlab script that determined surface area tumor coverage.\nHemi-splenectomies were performed on athymic NCr-nu/nu mice (Charles River Laboratories) with low passage AsPC-1 cells as previously described. In short, laparotomies were performed on anesthetized mice in which the upper pole of a divided spleen was reinserted into the peritoneum while 1×10^7 AsPC-1 cells prepared in phosphate buffered saline were injected into the lower splenic pole, chased by an equal volume of phosphate buffered saline. The pancreas and splenic vessels were ligated and the peritoneum was closed.\nAsPC-1 cells were pretreated with 50 μM 4-HAP or PBS 24 hr prior to injection during hemisplenectomies. […]\nQuantifications of mouse livers were performed using a custom-designed Matlab script. […] The percent coverage of tumor was calculated."}, "[5]": {"system": "A10.7 cells", "assay": "Micropipette aspiration mechanics", "format": "cell-based, human", "conditions": "PDAC A10.7 cells", "description": "The instrumental and experimental setups have been previously described (Effler J C, et al., 2006; Kee Y-S, et al., 2013). Micropipette aspiration assays were all carried out in growth media with 0.1% DMSO. For cortical tension measurements of Dictyostelium cells, pressure was applied to the cell cortex with a micropipette (2-3 m radius, Rp) to the equilibrium pressure (ΔP) where the length of the cell inside the pipette (Lp) was equal to Rp. The effective cortical tension (Teff) was calculated by applying the Young-Laplace equation: ΔP=2Teff(1/Rp-1/Rc), where Rc is the radius of the cell and ΔP is the equilibrium pressure when Lp=Rp (Derganc J, et al., 2000; Octtaviani E, et al., 2006). For creep tests on mammalian strains, a constant aspiration stress was applied over 60 s. The micropipette radius was 3.5-4.5 m. For quantification, the Lp/Rp ratio values was measured every two seconds and plotted as a function of time. A10.7 and HEK293 cells could only be aspirated at a low pressure range (0.15 nN/μm^2), while HPDE, ASPC-1, and HL-60 cells could be aspirated at higher pressure ranges (0.25 nN/μm^2) because they were stiffer."}},
  "data": [
    {"molecule": "CC(=O)c1ccc(O)cc1", "note": "[4-HAP, 4-hydroxyacetophenone]", "values": [
      {"measurement": "assembled myosin IIB", "setting": "[1]; HEK293 cells, 500 nM, 1 hr", "value": "increases in assembled myosin IIB and IIC"},
      {"measurement": "assembled myosin IIB", "setting": "[1]; HPDE cells", "value": "showed a shift in assembly"},
      {"measurement": "assembled myosin IIC", "setting": "[2]; ASPC-1 cells, 500 nM, 1 hr", "value": "increases assembled myosin IIC"},
      {"measurement": "assembled myosin IIC", "setting": "[2]; HEK293 cells, 500 nM, 1 hr", "value": "increases in assembled myosin IIB and IIC"},
      {"measurement": "assembled myosin IIC", "setting": "[2]; wild type HPDE cells", "value": "increases assembled myosin IIC"},
      {"measurement": "assembled myosin IIA", "setting": "[3]", "value": "showed little change"},
      {"measurement": "tumor formation (liver weights and tumor coverage)", "setting": "[4]", "value": "reduction in tumor formation"},
      {"measurement": "reduction in surface tumor load (liver tumor coverage)", "setting": "[4]; 5-weeks post-surgery", "value": 50, "unit": "%"},
      {"measurement": "cortical tension", "setting": "[5]", "value": "decreases the cortical tension"}
    ]}
  ]
}
